Measurements taken from patent publication US20250325569A1, “COMPOSITIONS AND METHODS OF MAKING AND USE THEREOF” (Ohio State Innovation Foundation, priority 2022, published 2025).
In brackets after ≈: the same amount, converted by molar mass.

Experiments:
Format in all cases: cell-based
[1] = system: Acinetobacter calcoaceticus ATCC 23055; experiment: Microbroth dilution MIC
Description: (§1) Antimicrobial Assays. Susceptibility testing was performed using the microbroth dilution method in 96 round-well microtiter plates following the general guidelines described by the Clinical and Laboratory Standards Institute (CLSI). Compounds were prepared as 50λ of stocks (10 mM) by dissolving in dI H2O. All bacterial strains were grown and assayed in Mueller-Hinton and M9 glucose media (with amendments added as required), and yeast strains in YMM. Overnight cultures were inoculated into 3 mL of fresh growth media following a 1:100 dilution. Upon mid-exponential growth (OD600 0.4-0.6), cultures were diluted to 5×10^6 CFU mL-1 (based on previously determined calibration curves) and used as inoculum into assay plates. Wells contained 100 μL of media with 5×10^5 CFU mL-1 of test organism, and serial ½-dilutions of the test compound (starting with 200 μM). E. coli WM6242 was assayed with induction of the phosphonic acid uptake system including 1 mM IPTG in assay wells. Controls wells contained 200 µM kanamycin (for bacteria) or nystatin (for yeasts), no compound addition (vehicle only), and no cell addition (added media instead). Microtiter plates were incubated with shaking (220 rpm) at their respective growth temperatures. Culture densities (OD600) were recorded using a Bio-Rad xMark microplate spectrophotometer after 16 hours for all strains except Bacillus, which were after 24 hours. Assays were performed in triplicated on separate independent days. […] Minimum inhibitory concentrations are from triplicate assays performed on separate days.
(§2) Antimicrobial Assays. […] Susceptibility testing was performed using the microbroth dilution method in 96 round-well microtiter plates as previously described [A20]. Compounds were prepared as 50× of stocks (10 Mm) by dissolving in Di H2O. All bacterial strains were grown and assayed M9 glucose media (with amendments added as required), and yeast strains in YMM. Controls wells contained 200 µM kanamycin (for bacteria) or nystatin (for yeasts), no compound addition (vehicle only), and no cell addition (added media instead). Culture densities (OD600) were recorded using a Bio-Rad xMark microplate spectrophotometer after 16 hours for all strains except bacilli, which were recorded after 24 hours. […] MICs values are from triplicate assays performed on separate days. Disk diffusion assays were used to assess antimicrobial activity of the purified compounds against filamentous fungi and against Mycobacterium smegmatis [A20].

[2] = system: Bacillus megaterium ATCC 19213; experiment: Microbroth dilution MIC
Description: as §1, §2

[3] = system: Bacillus subtilis ATCC 6633; experiment: Microbroth dilution MIC
Description: as §1, §2

[4] = system: Citrobacter freundii ATCC 8090; experiment: Microbroth dilution MIC
Description: as §1, §2

[5] = system: Enterobacter aerogenes CDC 1998-68; experiment: Microbroth dilution MIC
Description: as §1, §2

[6] = system: Erwinia rhapontici KSJ3948; experiment: Microbroth dilution MIC
Description: as §1, §2

Escherichia coli K12 = experiment: Microbroth dilution MIC; conditions: for MIC: Escherichia coli K12
Description: as §1, §2

[7] = system: Pantoea ananatis LMG 20103; experiment: Microbroth dilution MIC
Description: as §1, §2

Pseudomonas aeruginosa K = experiment: Microbroth dilution MIC; conditions: for MIC: Pseudomonas aeruginosa K
Description: as §1, §2

[8] = system: Pseudomonas aeruginosa PA01; experiment: Microbroth dilution MIC
Description: as §1, §2

Rhodococcus jostii RHA1 = experiment: Microbroth dilution MIC
Description: as §1, §2

Salmonella enterica LT2 = experiment: Microbroth dilution MIC; conditions: for MIC: Salmonella enterica LT2
Description: as §1, §2

[9] = system: Serratia marcescens NRRL B-2544; experiment: Microbroth dilution MIC; conditions: for MIC: Serratia marcescens NRRL B-2544
Description: as §1, §2

[10] = system: Staphylococcus aureus ATCC 23055; experiment: Microbroth dilution MIC
Description: as §1, §2

Escherichia coli WM6242 = experiment: Microbroth dilution MIC; conditions: Table 2 (MIC90), triplicate
Description: (§3) Antimicrobial Assays. […] Compounds were prepared as 50λ of stocks (10 mM) by dissolving in dI H2O. […] Overnight cultures were inoculated into 3 mL of fresh growth media following a 1:100 dilution. Upon mid-exponential growth (OD600 0.4-0.6), cultures were diluted to 5×10^6 CFU mL-1 (based on previously determined calibration curves) and used as inoculum into assay plates. Wells contained 100 μL of media with 5×10^5 CFU mL-1 of test organism, and serial ½-dilutions of the test compound (starting with 200 μM). E. coli WM6242 was assayed with induction of the phosphonic acid uptake system including 1 mM IPTG in assay wells. […] Microtiter plates were incubated with shaking (220 rpm) at their respective growth temperatures. […] Assays were performed in triplicated on separate independent days. […] Minimum inhibitory concentrations are from triplicate assays performed on separate days.

[11] = system: Escherichia coli WM6242 (Pn Uptake Induced); experiment: Microbroth dilution MIC, phosphonate uptake induced with 1 mM IPTG
Description: as §3

[12] = system: Acidovorax avenae ATCC 19860; experiment: Microbroth dilution MIC; conditions: Paracidovorax avenae, ATCC19860, Table 13, minimal media
Description: as §2

[13] = system: Acidovorax citrulli ATCC 29625; experiment: Microbroth dilution MIC; conditions: Paracidovorax citrulli, ATCC29625, Table 13, minimal media
Description: as §2

[14] = system: Acidovorax konjacii ATCC 33996; experiment: Microbroth dilution MIC; conditions: Table 13, minimal media
Description: as §2

[15] = system: Acidovorax temperans ATCC 49665; experiment: Microbroth dilution MIC; conditions: ATCC49665, Table 13, minimal media
Description: as §2

[16] = system: Acidovroax delafieldii ATCC 17505; experiment: Microbroth dilution MIC; conditions: Table 13, minimal media
Description: as §2

[17] = system: Pseudomonas fluorescens Pf5; experiment: Microbroth dilution MIC; conditions: Table 13, minimal media
Description: as §2

[18] = system: Pseudomonas medocina Palleroni ATCC 25411; experiment: Microbroth dilution MIC; conditions: ATCC25411, Table 13, minimal media
Description: as §2

[19] = system: Pseudomonas syringae pv. Tomato Max 14; experiment: Microbroth dilution MIC; conditions: Table 13, minimal media
Description: as §2

[20] = system: Salmonella enterica ser. Livingstone 1236H; experiment: Microbroth dilution MIC
Description: as §2

[21] = system: Salmonella enterica ser. Tennessee E2007000304; experiment: Microbroth dilution MIC; conditions: Table 13, minimal media
Description: as §2

[22] = system: Pseudomonas syringae B278a; experiment: microbe, parasite or virus in culture; conditions: Table 13, minimal media
Description: as §2

[23] = system: yeast, and filamentous fungi; experiment: Antifungal activity: microbroth dilution (yeasts) and disk diffusion (filamentous fungi); conditions: panel of yeast and filamentous fungi (Table 12)
Description: Antimicrobial Assays. Susceptibility testing was performed using the microbroth dilution method in 96 round-well microtiter plates following the general guidelines described by the Clinical and Laboratory Standards Institute (CLSI). Compounds were prepared as 50λ of stocks (10 mM) by dissolving in dI H2O. All bacterial strains were grown and assayed in Mueller-Hinton and M9 glucose media (with amendments added as required), and yeast strains in YMM. Overnight cultures were inoculated into 3 mL of fresh growth media following a 1:100 dilution. Upon mid-exponential growth (OD600 0.4-0.6), cultures were diluted to 5×10^6 CFU mL-1 (based on previously determined calibration curves) and used as inoculum into assay plates. Wells contained 100 μL of media with 5×10^5 CFU mL-1 of test organism, and serial ½-dilutions of the test compound (starting with 200 μM). E. coli WM6242 was assayed with induction of the phosphonic acid uptake system including 1 mM IPTG in assay wells. […] Culture densities (OD600) were recorded using a Bio-Rad xMark microplate spectrophotometer after 16 hours for all strains except Bacillus, which were after 24 hours. […]
Antimicrobial Assays. […] Culture densities (OD600) were recorded using a Bio-Rad xMark microplate spectrophotometer after 16 hours for all strains except bacilli, which were recorded after 24 hours. […]

[24] = system: Curtobacterium sp. MMLR14_014; experiment: Antibacterial susceptibility testing; conditions: strains of Curtobacterium commonly present in soils and on plants
Description: as §2

[25] = ATCC23055, Table 2 (MIC90), microbroth dilution, triplicate
[26] = Table 13, minimal media, ≥90% growth inhibition
[27] = Table 2 (MIC90), microbroth dilution, triplicate

CC(N)C(=O)NC(CP(=O)(O)O)C(=O)O (stereo not drawn) [Compound 2] was tested, and the MIC [1, 25] was greater than 200 µM, the MIC ([1]; Table 13, minimal media) was greater than 200 µM and the MIC ([2]; Priestia megaterium, ATCC19213, Table 2 (MIC90), microbroth dilution, triplicate) was 12.5 µM (≈ 3 µg/mL). The MIC ([2]; Table 13, minimal media) was 12.5 µM (≈ 3 µg/mL), the MIC ([3]; ATCC6633, Table 2 (MIC90), microbroth dilution, triplicate) was 200 µM (≈ 48 µg/mL) and the MIC ([3]; Table 13, minimal media) was 200 µM (≈ 48 µg/mL). The MIC ([4]; ATCC8090, Table 2 (MIC90), microbroth dilution, triplicate) was greater than 200 µM, the MIC [4, 26] was greater than 200 µM and the MIC ([5]; Klebsiella aerogenes, CDC199868, Table 2 (MIC90), microbroth dilution, triplicate) was greater than 200 µM. The MIC [5, 26] was greater than 200 µM, the MIC ([6]; KSJ3948, Table 2 (MIC90), Erwinia rhapontici KSJ, microbroth dilution, triplicate) was greater than 200 µM and the MIC ([6]; Table 13, Erwinia rhapontici KSJ3948, minimal media, ≥90% growth inhibition) was greater than 200 µM. The MIC (Escherichia coli K12; [27]) was greater than 200 µM, the MIC (Escherichia coli K12; [26]) was greater than 200 µM and the MIC ([7]; LMG20103, Table 2 (MIC90), microbroth dilution, triplicate) was 100 µM (≈ 24 µg/mL). It also gave an MIC [7, 26] of 100 µM (≈ 24 µg/mL), an MIC (Pseudomonas aeruginosa K; [27]) greater than 200 µM and an MIC (Pseudomonas aeruginosa K; Table 13, minimal media) greater than 200 µM. The MIC [8, 27] was greater than 200 µM, the MIC ([8]; Table 13, minimal media) was greater than 200 µM and the MIC (Rhodococcus jostii RHA1; [27]) was greater than 200 µM. For the same compound, the MIC (Rhodococcus jostii RHA1; Table 13, minimal media) was greater than 200 µM, the MIC (Salmonella enterica LT2; [27]) was greater than 200 µM and the MIC (Salmonella enterica LT2; [26]) was greater than 200 µM. The MIC ([9]; NRRLB2544, Table 2 (MIC90), microbroth dilution, triplicate) was greater than 200 µM, the MIC ([9]; Table 13, minimal media) was greater than 200 µM and the MIC [10, 25] was greater than 200 µM. The MIC ([10]; Table 13, minimal media) was greater than 200 µM, the MIC (Escherichia coli WM6242) was greater than 200 µM and the MIC [11] was greater than 200 µM. For the same compound, the MIC [12] was greater than 200 µM, the MIC [13] was greater than 200 µM and the MIC [14] was greater than 200 µM. The MIC [15] was greater than 200 µM, the MIC [16] was greater than 200 µM and the MIC [17] was greater than 200 µM. It also gave an MIC [18] greater than 200 µM, an MIC [19] greater than 200 µM and an MIC [20] greater than 200 µM. For the same compound, the MIC [21] was greater than 200 µM, the MIC [22] was greater than 200 µM and the “antifungal activity (in words)” value [23] was “neither compound exhibited antifungal activity”. The “inhibition (in words)” value [24] was “Neither compound inhibited”.
CC(N)C(=O)NC(C)C(=O)NC(CP(=O)(O)O)C(=O)O (stereo not drawn) [Compound 3] was tested, and the “inhibitory activity compared with phosphonoalamide A (previously measured)” value (Escherichia coli K12; E. coli K12, i.e. lower MICs) was “greater inhibitory activity”, the “inhibitory activity compared with phosphonoalamide A (previously measured)” value (Pseudomonas aeruginosa K; P. aeuroginosa K, i.e. lower MICs) was “greater inhibitory activity” and the “inhibitory activity compared with phosphonoalamide A (previously measured)” value (Salmonella enterica LT2; S. enterica LT2, i.e. lower MICs) was “greater inhibitory activity”. For the same compound, the “inhibitory activity compared with phosphonoalamide A (previously measured)” value ([9]; S. marcescens B-2544, i.e. lower MICs) was “greater inhibitory activity” and the “inhibition (in words)” value [24] was “Neither compound inhibited”.
